Experimental data taken from ChEMBL document CHEMBL3414527, “Engineering potent and selective analogues of GpTx-1, a tarantula venom peptide antagonist of the Na(V)1.7 sodium channel” (J Med Chem, 2015).
Bridge positions count the residues as written; N and C are the ends. Peptide text beside a SMILES is read from it.

Tests used:
[1] = molecular target: Sodium channel protein type 9 subunit alpha (Homo sapiens, UniProt Q15858); test: Inhibition of human NaV1.7 at -140 mV holding potential by whole-cell patch clamp assay
Sequence of Sodium channel protein type 9 subunit alpha (Q15858 whole entry): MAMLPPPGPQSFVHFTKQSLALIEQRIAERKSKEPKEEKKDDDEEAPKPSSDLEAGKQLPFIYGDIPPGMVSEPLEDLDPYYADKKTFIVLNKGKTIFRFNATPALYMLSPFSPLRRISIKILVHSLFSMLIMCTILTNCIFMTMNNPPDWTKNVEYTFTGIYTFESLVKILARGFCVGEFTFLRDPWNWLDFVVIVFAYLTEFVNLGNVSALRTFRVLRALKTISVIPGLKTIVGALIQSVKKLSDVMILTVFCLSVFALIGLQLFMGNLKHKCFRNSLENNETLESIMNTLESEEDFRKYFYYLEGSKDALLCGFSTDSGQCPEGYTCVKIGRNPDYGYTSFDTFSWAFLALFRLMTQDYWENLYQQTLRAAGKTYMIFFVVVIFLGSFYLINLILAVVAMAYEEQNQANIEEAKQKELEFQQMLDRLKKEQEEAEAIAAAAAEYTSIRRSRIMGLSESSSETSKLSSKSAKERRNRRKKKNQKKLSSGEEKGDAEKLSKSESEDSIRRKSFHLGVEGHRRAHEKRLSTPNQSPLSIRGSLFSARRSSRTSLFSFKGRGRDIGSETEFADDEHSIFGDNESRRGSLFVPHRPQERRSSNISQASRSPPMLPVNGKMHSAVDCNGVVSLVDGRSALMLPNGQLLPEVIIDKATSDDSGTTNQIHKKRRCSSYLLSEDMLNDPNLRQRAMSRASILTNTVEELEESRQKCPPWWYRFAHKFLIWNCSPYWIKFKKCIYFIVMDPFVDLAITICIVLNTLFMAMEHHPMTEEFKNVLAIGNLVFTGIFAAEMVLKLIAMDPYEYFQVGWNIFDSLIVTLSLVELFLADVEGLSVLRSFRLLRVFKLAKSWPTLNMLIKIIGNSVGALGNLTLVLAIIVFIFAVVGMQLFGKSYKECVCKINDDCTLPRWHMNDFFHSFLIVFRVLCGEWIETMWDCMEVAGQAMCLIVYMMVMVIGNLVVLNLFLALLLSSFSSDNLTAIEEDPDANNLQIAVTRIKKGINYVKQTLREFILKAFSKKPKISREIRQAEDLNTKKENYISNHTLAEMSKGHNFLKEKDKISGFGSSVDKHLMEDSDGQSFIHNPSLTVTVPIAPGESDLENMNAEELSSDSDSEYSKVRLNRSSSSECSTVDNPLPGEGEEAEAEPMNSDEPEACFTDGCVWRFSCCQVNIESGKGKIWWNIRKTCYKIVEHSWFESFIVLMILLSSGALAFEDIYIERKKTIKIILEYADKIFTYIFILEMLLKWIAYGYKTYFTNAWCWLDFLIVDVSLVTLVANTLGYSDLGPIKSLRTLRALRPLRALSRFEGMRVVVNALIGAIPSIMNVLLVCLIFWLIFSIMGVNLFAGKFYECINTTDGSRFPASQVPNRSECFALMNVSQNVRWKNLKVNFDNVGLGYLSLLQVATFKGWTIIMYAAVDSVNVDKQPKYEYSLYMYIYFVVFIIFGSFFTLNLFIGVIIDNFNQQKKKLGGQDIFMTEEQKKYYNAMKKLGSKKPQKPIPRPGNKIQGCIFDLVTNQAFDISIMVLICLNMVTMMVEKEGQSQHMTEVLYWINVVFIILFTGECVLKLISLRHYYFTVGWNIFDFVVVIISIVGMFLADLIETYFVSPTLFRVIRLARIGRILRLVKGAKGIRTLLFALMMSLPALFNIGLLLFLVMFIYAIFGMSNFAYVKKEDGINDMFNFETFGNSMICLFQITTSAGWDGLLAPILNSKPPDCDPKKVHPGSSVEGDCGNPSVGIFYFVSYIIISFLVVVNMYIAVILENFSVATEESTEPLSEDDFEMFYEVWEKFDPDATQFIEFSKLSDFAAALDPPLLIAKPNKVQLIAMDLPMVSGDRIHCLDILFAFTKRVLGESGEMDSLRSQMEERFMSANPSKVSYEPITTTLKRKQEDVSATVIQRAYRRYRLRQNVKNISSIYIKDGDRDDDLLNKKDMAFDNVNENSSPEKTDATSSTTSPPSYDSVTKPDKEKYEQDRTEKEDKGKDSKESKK

[2] = molecular target: Sodium channel protein type 5 subunit alpha (Homo sapiens, UniProt Q14524); test: Inhibition of human NaV1.5 at -140 mV holding potential by whole-cell patch clamp assay
Sequence of Sodium channel protein type 5 subunit alpha (Q14524 whole entry): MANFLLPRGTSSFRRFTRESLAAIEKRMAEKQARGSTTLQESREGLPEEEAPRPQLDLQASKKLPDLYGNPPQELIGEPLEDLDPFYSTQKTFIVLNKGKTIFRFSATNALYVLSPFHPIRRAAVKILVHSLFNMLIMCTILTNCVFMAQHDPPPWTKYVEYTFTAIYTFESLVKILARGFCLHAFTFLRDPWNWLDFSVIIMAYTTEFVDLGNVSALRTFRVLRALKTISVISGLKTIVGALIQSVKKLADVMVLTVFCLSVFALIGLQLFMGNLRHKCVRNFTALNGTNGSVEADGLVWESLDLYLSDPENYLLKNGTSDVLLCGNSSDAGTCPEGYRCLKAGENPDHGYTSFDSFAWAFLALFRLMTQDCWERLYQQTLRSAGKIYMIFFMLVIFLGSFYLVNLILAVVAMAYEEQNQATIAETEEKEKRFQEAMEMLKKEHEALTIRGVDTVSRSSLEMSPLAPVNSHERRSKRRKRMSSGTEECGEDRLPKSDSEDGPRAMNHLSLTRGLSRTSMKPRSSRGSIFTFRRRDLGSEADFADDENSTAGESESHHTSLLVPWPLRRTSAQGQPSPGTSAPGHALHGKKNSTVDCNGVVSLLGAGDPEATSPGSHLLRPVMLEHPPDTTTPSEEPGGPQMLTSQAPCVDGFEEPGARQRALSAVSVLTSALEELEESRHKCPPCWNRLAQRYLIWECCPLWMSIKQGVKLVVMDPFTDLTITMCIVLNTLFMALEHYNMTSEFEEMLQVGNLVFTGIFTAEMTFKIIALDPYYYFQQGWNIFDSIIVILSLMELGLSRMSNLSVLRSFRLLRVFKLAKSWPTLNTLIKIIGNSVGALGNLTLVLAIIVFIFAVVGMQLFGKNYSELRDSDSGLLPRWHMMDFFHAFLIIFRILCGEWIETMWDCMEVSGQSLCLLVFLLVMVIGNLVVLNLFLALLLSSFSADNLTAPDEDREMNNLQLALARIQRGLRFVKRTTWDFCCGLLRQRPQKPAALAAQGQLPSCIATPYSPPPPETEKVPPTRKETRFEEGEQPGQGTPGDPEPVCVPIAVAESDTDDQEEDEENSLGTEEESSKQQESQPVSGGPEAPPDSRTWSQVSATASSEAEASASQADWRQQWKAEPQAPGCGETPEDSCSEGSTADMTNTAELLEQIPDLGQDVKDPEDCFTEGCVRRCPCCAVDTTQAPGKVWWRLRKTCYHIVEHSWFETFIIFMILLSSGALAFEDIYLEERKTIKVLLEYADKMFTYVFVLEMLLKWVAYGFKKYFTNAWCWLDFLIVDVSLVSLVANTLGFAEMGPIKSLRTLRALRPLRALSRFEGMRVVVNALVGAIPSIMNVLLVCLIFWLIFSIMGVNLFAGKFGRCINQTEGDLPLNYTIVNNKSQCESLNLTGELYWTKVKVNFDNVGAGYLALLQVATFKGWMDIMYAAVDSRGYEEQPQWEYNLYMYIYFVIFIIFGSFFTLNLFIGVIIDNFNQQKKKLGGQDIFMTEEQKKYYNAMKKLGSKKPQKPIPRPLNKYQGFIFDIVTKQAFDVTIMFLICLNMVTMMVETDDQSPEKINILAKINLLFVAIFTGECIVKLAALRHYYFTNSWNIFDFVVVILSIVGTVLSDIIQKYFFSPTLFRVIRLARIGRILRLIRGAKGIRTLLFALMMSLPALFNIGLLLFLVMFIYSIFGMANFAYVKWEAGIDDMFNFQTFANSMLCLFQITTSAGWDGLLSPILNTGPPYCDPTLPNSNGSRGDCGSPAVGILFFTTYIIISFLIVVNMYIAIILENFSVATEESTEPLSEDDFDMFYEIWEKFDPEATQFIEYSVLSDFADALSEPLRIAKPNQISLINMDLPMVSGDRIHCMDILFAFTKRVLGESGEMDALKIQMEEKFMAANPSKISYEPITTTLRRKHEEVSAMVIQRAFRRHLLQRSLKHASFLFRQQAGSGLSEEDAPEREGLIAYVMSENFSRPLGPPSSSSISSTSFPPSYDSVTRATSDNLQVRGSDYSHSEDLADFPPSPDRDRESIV

Structure (SMILES) | IC50 [1] | IC50 [2]
CC[C@H](C)[C@@H]1NC(=O)[C@@H]2CSSC[C@@H]3NC(=O)[C@H](C(C)C)NC(=O)[C@H](CC(C)C)NC(=O)[C@H](CC(N)=O)NC(=O)[C@H](C)NC(=O)[C@H](CCCNC(=N)N)NC(=O)[C@H](CSSC[C@H](NC(=O)[C@@H](N)CC(=O)O)C(=O)N[C@@H](CC(C)C)C(=O)NCC(=O)N[C@@H](Cc4ccccc4)C(=O)N[C@@H](CCSC)C(=O)N[C@@H](CCCNC(=N)N)C(=O)N[C@@H](CCCCN)C(=O)N2)NC(=O)[C@H](CSSC[C@@H](C(=O)N[C@@H](CCCCN)C(=O)N[C@@H](Cc2ccc(O)cc2)C(=O)N[C@H](C(=O)N[C@@H](Cc2ccccc2)C(N)=O)C(C)C)NC(=O)[C@H](Cc2c[nH]c4ccccc24)NC(=O)[C@H](CCCCN)NC(=O)[C@H](Cc2cnc[nH]2)NC(=O)[C@H]([C@@H](C)O)NC(=O)[C@H](CCCNC(=N)N)NC(=O)[C@H](CO)NC3=O)NC(=O)[C@H](CCCCN)NC(=O)[C@H](CC(=O)O)NC(=O)[C@H](CC(N)=O)NC(=O)[C@H](CC(=O)O)NC(=O)[C@@H]2CCCN2C1=O (H-DCLGFMRKCIPDNDKCCRANLVCSRTHKWCKYVF-NH2; disulfide 2-17, 9-23, 16-30) | 90 nM | > 20000 nM
CC[C@H](C)[C@@H]1NC(=O)[C@@H]2CSSC[C@@H]3NC(=O)[C@H](C(C)C)NC(=O)[C@H](CC(C)C)NC(=O)[C@H](CC(N)=O)NC(=O)[C@@H]4CCCN4C(=O)[C@H](CCCNC(=N)N)NC(=O)[C@H](CSSC[C@H](NC(=O)[C@@H](N)CC(=O)O)C(=O)N[C@@H](CC(C)C)C(=O)NCC(=O)N[C@@H](Cc4ccccc4)C(=O)N[C@@H](Cc4c[nH]c5ccccc45)C(=O)N[C@@H](CCCNC(=N)N)C(=O)N[C@@H](CCCCN)C(=O)N2)NC(=O)[C@H](CSSC[C@@H](C(=O)N[C@@H](CCCCN)C(=O)N[C@@H](Cc2ccc(O)cc2)C(=O)N[C@H](C(=O)N[C@@H](Cc2ccccc2)C(N)=O)C(C)C)NC(=O)[C@H](Cc2c[nH]c4ccccc24)NC(=O)[C@H](CCCCN)NC(=O)[C@H](Cc2cnc[nH]2)NC(=O)[C@H]([C@@H](C)O)NC(=O)[C@H](CCCNC(=N)N)NC(=O)[C@H](CO)NC3=O)NC(=O)[C@H](CCCCN)NC(=O)[C@H](CC(=O)O)NC(=O)[C@H](CC(N)=O)NC(=O)[C@H](CC(=O)O)NC(=O)[C@@H]2CCCN2C1=O (H-DCLGFWRKCIPDNDKCCRPNLVCSRTHKWCKYVF-NH2; disulfide 2-17, 9-23, 16-30) | 23 nM | 3400 nM
CC[C@H](C)[C@@H]1NC(=O)[C@@H]2CSSC[C@@H]3NC(=O)[C@H](C(C)C)NC(=O)[C@H](CC(C)C)NC(=O)[C@H](CC(N)=O)NC(=O)[C@@H]4CCCN4C(=O)[C@H](CCCNC(=N)N)NC(=O)[C@H](CSSC[C@H](NC(=O)[C@@H](N)CC(=O)O)C(=O)N[C@@H](CC(C)C)C(=O)NCC(=O)N[C@@H](C)C(=O)N[C@@H](Cc4cccc5ccccc45)C(=O)N[C@@H](CCCNC(=N)N)C(=O)N[C@@H](CCCCN)C(=O)N2)NC(=O)[C@H](CSSC[C@@H](C(=O)N[C@@H](CCCCN)C(=O)N[C@@H](Cc2ccc(O)cc2)C(=O)N[C@H](C(=O)N[C@@H](Cc2ccccc2)C(N)=O)C(C)C)NC(=O)[C@H](Cc2c[nH]c4ccccc24)NC(=O)[C@H](CCCCN)NC(=O)[C@H](Cc2cnc[nH]2)NC(=O)[C@H]([C@@H](C)O)NC(=O)[C@H](CCCNC(=N)N)NC(=O)[C@H](CO)NC3=O)NC(=O)[C@H](CCCCN)NC(=O)[C@H](CC(=O)O)NC(=O)[C@H](CC(N)=O)NC(=O)[C@H](CC(=O)O)NC(=O)[C@@H]2CCCN2C1=O | 3 nM | 3600 nM
CC[C@H](C)[C@@H]1NC(=O)[C@@H]2CSSC[C@@H]3NC(=O)[C@H](C(C)C)NC(=O)[C@H](CC(C)C)NC(=O)[C@H](CC(N)=O)NC(=O)[C@@H]4CCCN4C(=O)[C@H](CCCNC(=N)N)NC(=O)[C@H](CSSC[C@H](NC(=O)[C@@H](N)CC(=O)O)C(=O)N[C@@H](CC(C)C)C(=O)NCC(=O)N[C@@H](Cc4ccccc4)C(=O)N[C@@H](Cc4ccccc4)C(=O)N[C@@H](CCCNC(=N)N)C(=O)N[C@@H](CCCCN)C(=O)N2)NC(=O)[C@H](CSSC[C@@H](C(=O)N[C@@H](CCCCN)C(=O)N[C@@H](Cc2ccc(O)cc2)C(=O)N[C@H](C(=O)N[C@@H](Cc2ccccc2)C(N)=O)C(C)C)NC(=O)[C@H](Cc2c[nH]c4ccccc24)NC(=O)[C@H](CCCCN)NC(=O)[C@H](Cc2cnc[nH]2)NC(=O)[C@H]([C@@H](C)O)NC(=O)[C@H](CCCNC(=N)N)NC(=O)[C@H](CO)NC3=O)NC(=O)[C@H](CCCCN)NC(=O)[C@H](CC(=O)O)NC(=O)[C@H](CC(N)=O)NC(=O)[C@H](CC(=O)O)NC(=O)[C@@H]2CCCN2C1=O (H-DCLGFFRKCIPDNDKCCRPNLVCSRTHKWCKYVF-NH2; disulfide 2-17, 9-23, 16-30) | 19 nM | 3000 nM
CC[C@H](C)[C@@H]1NC(=O)[C@@H]2CSSC[C@@H]3NC(=O)[C@H](C(C)C)NC(=O)[C@H](CC(C)C)NC(=O)[C@H](CC(N)=O)NC(=O)[C@@H]4CCCN4C(=O)[C@H](CCCNC(=N)N)NC(=O)[C@H](CSSC[C@H](NC(=O)[C@@H](N)CC(=O)O)C(=O)N[C@@H](CC(C)C)C(=O)NCC(=O)N[C@@H](Cc4ccccc4)C(=O)N[C@@H](CCSC)C(=O)N[C@@H](CCCNC(=N)N)C(=O)N[C@@H](CCCCN)C(=O)N2)NC(=O)[C@H](CSSC[C@@H](C(=O)N[C@@H](CCCCN)C(=O)N[C@@H](Cc2ccc(O)cc2)C(=O)N[C@H](C(=O)N[C@@H](Cc2ccccc2)C(N)=O)C(C)C)NC(=O)[C@H](Cc2c[nH]c4ccccc24)NC(=O)[C@H](CCC(=O)O)NC(=O)[C@H](Cc2cnc[nH]2)NC(=O)[C@H]([C@@H](C)O)NC(=O)[C@H](CCCNC(=N)N)NC(=O)[C@H](CO)NC3=O)NC(=O)[C@H](CCCCN)NC(=O)[C@H](CC(=O)O)NC(=O)[C@H](CC(N)=O)NC(=O)[C@H](CC(=O)O)NC(=O)[C@@H]2CCCN2C1=O (H-DCLGFMRKCIPDNDKCCRPNLVCSRTHEWCKYVF-NH2; disulfide 2-17, 9-23, 16-30) | 29 nM | > 10000 nM
CC[C@H](C)[C@@H]1NC(=O)CNC(=O)[C@H](CC(C)C)NC(=O)[C@@H](NC(=O)[C@@H](N)CC(=O)O)CSSC[C@@H]2NC(=O)[C@@H]3CSSC[C@@H](C(=O)N[C@@H](CCCCN)C(=O)N[C@@H](Cc4ccc(O)cc4)C(=O)N[C@H](C(=O)N[C@@H](Cc4ccccc4)C(N)=O)C(C)C)NC(=O)[C@H](Cc4c[nH]c5ccccc45)NC(=O)[C@H](CCCCN)NC(=O)[C@H](Cc4cnc[nH]4)NC(=O)[C@H]([C@@H](C)O)NC(=O)[C@H](CCCNC(=N)N)NC(=O)[C@H](CO)NC(=O)[C@H](CSSC[C@H](NC(=O)[C@H](CCCCN)NC(=O)[C@H](CCCNC(=N)N)NC(=O)[C@H](CCSC)NC1=O)C(=O)N[C@@H]([C@@H](C)CC)C(=O)N1CCC[C@H]1C(=O)N[C@@H](CC(=O)O)C(=O)N[C@@H](CC(N)=O)C(=O)N[C@@H](CC(=O)O)C(=O)N[C@@H](CCCCN)C(=O)N3)NC(=O)[C@H](C(C)C)NC(=O)[C@H](CC(C)C)NC(=O)[C@H](CC(N)=O)NC(=O)[C@@H]1CCCN1C(=O)[C@H](CCCNC(=N)N)NC2=O (H-DCLGIMRKCIPDNDKCCRPNLVCSRTHKWCKYVF-NH2; disulfide 2-17, 9-23, 16-30) | 9 nM | > 10000 nM
